Measured values: patent US20120328569A1, “INHIBITORS OF HEPATITIS C VIRUS NS5B POLYMERASE” (priority 2010, published 2012)

Test system: HCV genotype 1b replicon
Experiment: HCV replicon assay, cell ELISA with antibody to replicon-encoded NS3/4A (genotype 1b replicon)
Assay type: cell-based, hepatitis C virus
Settings: Hepatitis C virus, 96 h, read-out: Replicon 1b IC50 (nM), HCV genotype 1b replicon cells, 96 hours incubation, NS3/4A ELISA readout
Outline: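 Replicon-harbouring cells carrying neomycin phosphotransferase were incubated 96 h with a compound dilution series without G418. Replication was quantified indirectly by a cell ELISA detecting replicon-encoded NS3/4A. IC50 values were calculated relative to DMSO control with a four-parameter fit.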

Row | Compound | IC50
1 | CNC(=O)c1c(-c2ccc(F)cc2)oc2cc(N(C)S(C)(=O)=O)c(-c3cccc(-c4nc5ccc(F)cc5s4)c3)cc12 [Example 147, 5-[3-(6-fluoro-1,3-benzothiazol-2-yl)phenyl]-2-(4-fluorophenyl)-N-methyl-6-[methyl (methylsulfonyl)amino]-1-benzofuran-3-carboxamide] | 7 nM
2 | CNC(=O)c1c(-c2ccc(F)cc2)oc2cc(N(C)S(C)(=O)=O)c(-c3cccc(-c4nc5cc(Cl)ccc5s4)c3)cc12 [Example 148, 5-[3-(5-chloro-1,3-benzothiazol-2-yl)phenyl]-2-(4-fluorophenyl)-N-methyl-6-[methyl (methylsulfonyl)amino]-1-benzofuran-3-carboxamide] | 9 nM
3 | CNC(=O)c1c(-c2ccc(F)cc2)oc2cc(N(C)S(C)(=O)=O)c(-c3cccc(-c4nc5cc(C(F)(F)F)ccc5s4)c3)cc12 [Example 149, 2-(4-fluorophenyl)-N-methyl-6-[methyl (methylsulfonyl)amino]-5-{3-[5-(trifluoromethyl)-1,3-benzothiazol-2-yl]phenyl}-1-benzofuran-3-carboxamide] | 11 nM
4 | CNC(=O)c1c(-c2ccc(F)cc2)oc2cc(N(C)S(C)(=O)=O)c(-c3cccc(-c4nc5cc(F)ccc5[nH]4)c3)cc12 [Example 150, 5-[3-(5-fluoro-1H-benzimidazol-2-yl)phenyl]-2-(4-fluorophenyl)-N-methyl-6-[methyl(methylsulfonyl)amino]-1-benzofuran-3-carboxamide] | 1 nM
5 | CNC(=O)c1c(-c2ccc(F)cc2)oc2cc(N(C)S(C)(=O)=O)c(-c3cccc(-c4nc5ccccc5[nH]4)c3)cc12 [Example 151, 5-[3-(1H-benzimidazol-2-yl)phenyl]-2-(4-fluorophenyl)-N-methyl-6-[methyl (methylsulfonyl)amino]-1-benzofuran-3-carboxamide] | 5 nM
6 | CNC(=O)c1c(-c2ccc(F)cc2)oc2cc(N(C)S(C)(=O)=O)c(-c3cccc(-c4nc5ccc(C#N)cc5[nH]4)c3)cc12 [Example 152, 5-[3-(6-cyano-1H-benzimidazol-2-yl)phenyl]-2-(4-fluorophenyl)-N-methyl-6-[methyl (methylsulfonyl)amino]-1-benzofuran-3-carboxamide] | 4 nM
7 | CNC(=O)c1c(-c2ccc(F)cc2)oc2cc(N(C)S(C)(=O)=O)c(-c3cccc(-c4nc5ccc(Br)cc5[nH]4)c3)cc12 [Example 153, 5-[3-(6-bromo-1H-benzimidazol-2-yl)phenyl]-2-(4-fluorophenyl)-N-methyl-6-[methyl (methylsulfonyl)amino]-1-benzofuran-3-carboxamide] | 4 nM
8 | CNC(=O)c1c(-c2ccc(F)cc2)oc2cc(N(C)S(C)(=O)=O)c(-c3cccc(-c4nc5ccc(C)cc5[nH]4)c3)cc12 [Example 154, 2-(4-fluorophenyl)-N-methyl-5-[3-(6-methyl-1H-benzimidazol-2-yl)phenyl]-6-[methyl (methylsulfonyl)amino]-1-benzofuran-3-carboxamide] | 4 nM
9 | CNC(=O)c1c(-c2ccc(F)cc2)oc2cc(N(C)S(C)(=O)=O)c(-c3cccc(-c4nc5ncccc5o4)c3)cc12 [Example 155, 2-(4-fluorophenyl)-N-methyl-6-(N-methylmethylsulfonamido)-5-(3-(oxazolo[4,5-b]pyridin-2-yl)phenyl)benzofuran-3-carboxamide] | 1.1 nM
10 | CNC(=O)c1c(-c2ccc(F)cc2)oc2cc(N(C)S(C)(=O)=O)c(-c3cccc(-c4nc5ccccc5o4)c3)cc12 [Example 156] | 6.9 nM
11 | CNC(=O)c1c(-c2ccc(F)cc2)oc2cc(N(C)S(C)(=O)=O)c(-c3cccc(-c4nc5ccccc5o4)c3OC)cc12 [Example 157] | 22.7 nM
12 | CNC(=O)c1c(-c2ccc(F)cc2)oc2cc(N(C)S(C)(=O)=O)c(-c3cccc(-c4nc5cc(F)ccc5o4)c3)cc12 [Example 158] | 4.8 nM
13 | CNC(=O)c1c(-c2ccc(F)cc2)oc2cc(N(C)S(C)(=O)=O)c(-c3cccc(-c4nc5ccc(F)cc5o4)c3)cc12 [Example 159] | 1.8 nM
14 | CNC(=O)c1c(-c2ccc(F)cc2)oc2cc(N(C)S(C)(=O)=O)c(-c3cccc(-c4nc5cccc(F)c5o4)c3)cc12 [Example 160] | 7 nM
15 | CNC(=O)c1c(-c2ccc(F)cc2)oc2cc(N(C)S(C)(=O)=O)c(-c3cc(F)cc(-c4nc5cccc(F)c5o4)c3)cc12 [Example 161] | 3.7 nM
16 | CNC(=O)c1c(-c2ccc(F)cc2)oc2cc(N(C)S(C)(=O)=O)c(-c3cc(F)cc(-c4nc5cc(Cl)ccc5o4)c3)cc12 [Example 162] | 8.2 nM
17 | CNC(=O)c1c(-c2ccc(F)cc2)oc2cc(N(C)S(C)(=O)=O)c(-c3cc(F)cc(-c4nc5ccc(Cl)cc5o4)c3)cc12 [Example 163] | 8.5 nM
18 | CNC(=O)c1c(-c2ccc(F)cc2)oc2cc(N(C)S(C)(=O)=O)c(-c3cc(F)cc(-c4nc5cccc(Cl)c5o4)c3)cc12 [Example 164] | 16.5 nM
19 | CNC(=O)c1c(-c2ccc(F)cc2)oc2cc(N(C)S(C)(=O)=O)c(-c3cc(F)cc(-c4nc5c(C)cccc5o4)c3)cc12 [Example 165] | 4.7 nM
20 | CNC(=O)c1c(-c2ccc(F)cc2)oc2cc(N(C)S(C)(=O)=O)c(-c3cc(F)cc(-c4nc5ccc(C)cc5o4)c3)cc12 [Example 166] | 4.4 nM
21 | CNC(=O)c1c(-c2ccc(F)cc2)oc2cc(N(C)S(C)(=O)=O)c(-c3cc(F)cc(-c4nc5cccc(C)c5o4)c3)cc12 [Example 167] | 10.4 nM
22 | CNC(=O)c1c(-c2ccc(F)cc2)oc2cc(N(C)S(C)(=O)=O)c(-c3ccc(F)c(-c4nc5ccccc5o4)c3)cc12 [Example 168] | 3.9 nM
23 | CNC(=O)c1c(-c2ccc(F)cc2)oc2cc(N(C)S(C)(=O)=O)c(-c3cc(-c4nc5ccccc5o4)ccc3F)cc12 [Example 169] | 6.4 nM
24 | CNC(=O)c1c(-c2ccc(F)cc2)oc2cc(N(C)S(C)(=O)=O)c(-c3cccc(-c4nc5cc(Cl)ccc5o4)c3)cc12 [Example 170] | 5.2 nM

Row | Compound | IC50
25 | CNC(=O)c1c(-c2ccc(F)cc2)oc2cc(N(C)S(C)(=O)=O)c(-c3cccc(-c4nc5ccc(Cl)cc5o4)c3)cc12 [Example 171] | 6.8 nM
26 | CNC(=O)c1c(-c2ccc(F)cc2)oc2cc(N(C)S(C)(=O)=O)c(-c3cccc(-c4nc5cccc(Cl)c5o4)c3)cc12 [Example 172] | 27 nM
27 | CNC(=O)c1c(-c2ccc(F)cc2)oc2cc(N(C)S(C)(=O)=O)c(-c3cccc(-c4nc5c(C)cccc5o4)c3)cc12 [Example 173] | 5.6 nM
28 | CNC(=O)c1c(-c2ccc(F)cc2)oc2cc(N(C)S(C)(=O)=O)c(-c3cccc(-c4nc5ccc(C)cc5o4)c3)cc12 [Example 174] | 10.4 nM
29 | CNC(=O)c1c(-c2ccc(F)cc2)oc2cc(N(C)S(C)(=O)=O)c(-c3cccc(-c4nc5cccc(C)c5o4)c3)cc12 [Example 175] | 13.8 nM
30 | CNC(=O)c1c(-c2ccc(F)cc2)oc2cc(N(C)S(C)(=O)=O)c(-c3cc(OC)cc(-c4nc5ccccc5o4)c3)cc12 [Example 176] | 3.9 nM
31 | CNC(=O)c1c(-c2ccc(F)cc2)oc2cc(N(C)S(C)(=O)=O)c(-c3ccc(Cl)c(-c4nc5ccccc5o4)c3)cc12 [Example 177] | 7.4 nM
32 | CNC(=O)c1c(-c2ccc(F)cc2)oc2cc(N(C)S(C)(=O)=O)c(-c3cc(Cl)cc(-c4nc5ccccc5o4)c3)cc12 [Example 178] | 7 nM
33 | CNC(=O)c1c(-c2ccc(F)cc2)oc2cc(N(C)S(C)(=O)=O)c(-c3ccc(OC(F)(F)F)c(-c4nc5ccccc5o4)c3)cc12 [Example 179] | 7.2 nM
34 | CNC(=O)c1c(-c2ccc(F)cc2)oc2cc(N(C)S(C)(=O)=O)c(-c3cc(-c4nc5ccccc5o4)c(OC)cc3F)cc12 [Example 180] | 5 nM
35 | CNC(=O)c1c(-c2ccc(F)cc2)oc2cc(N(C)S(C)(=O)=O)c(-c3cc(F)c(OC)c(-c4nc5ccccc5o4)c3)cc12 [Example 181] | 5.7 nM
36 | CNC(=O)c1c(-c2ccc(F)cc2)oc2cc(N(C)S(C)(=O)=O)c(-c3cc(OC)c(OC)c(-c4nc5ccccc5o4)c3)cc12 [Example 182] | 2.3 nM
37 | CNC(=O)c1c(-c2ccc(F)cc2)oc2cc(N(C)S(C)(=O)=O)c(-c3ccc(OC)c(-c4nc5ccccc5o4)c3)cc12 [Example 183] | 1.5 nM
38 | CNC(=O)c1c(-c2ccc(F)cc2)oc2cc(N(C)S(C)(=O)=O)c(-c3ccc(OC)c(-c4nc5ccc(F)cc5o4)c3)cc12 [Example 185] | 2.2 nM
39 | CNC(=O)c1c(-c2ccc(F)cc2)oc2cc(N(C)S(C)(=O)=O)c(-c3ccc(OC)c(-c4nc5cccc(F)c5o4)c3)cc12 [Example 186] | 2 nM
40 | CNC(=O)c1c(-c2ccc(F)cc2)oc2cc(N(C)S(C)(=O)=O)c(-c3ccc(OC)c(-c4nc5cc(Cl)ccc5o4)c3)cc12 [Example 187] | 2.6 nM
41 | CNC(=O)c1c(-c2ccc(F)cc2)oc2cc(N(C)S(C)(=O)=O)c(-c3ccc(OC)c(-c4nc5ccc(Cl)cc5o4)c3)cc12 [Example 188] | 5.1 nM
42 | CNC(=O)c1c(-c2ccc(F)cc2)oc2cc(N(C)S(C)(=O)=O)c(-c3ccc(OC)c(-c4nc5cccc(Cl)c5o4)c3)cc12 [Example 189] | 1.9 nM
43 | CNC(=O)c1c(-c2ccc(F)cc2)oc2cc(N(C)S(C)(=O)=O)c(-c3ccc(OC)c(-c4nc5c(C)cccc5o4)c3)cc12 [Example 190] | 2.2 nM
44 | CNC(=O)c1c(-c2ccc(F)cc2)oc2cc(N(C)S(C)(=O)=O)c(-c3ccc(OC)c(-c4nc5ccc(C)cc5o4)c3)cc12 [Example 191] | 4.1 nM
45 | CNC(=O)c1c(-c2ccc(F)cc2)oc2cc(N(C)S(C)(=O)=O)c(-c3ccc(OC)c(-c4nc5cccc(C)c5o4)c3)cc12 [Example 192] | 1.9 nM
46 | CNC(=O)c1c(-c2ccc(F)cc2)oc2cc(N(C)S(C)(=O)=O)c(-c3ccc(OC(C)C)c(-c4nc5ccccc5o4)c3)cc12 [Example 193] | 11.6 nM
47 | CNC(=O)c1c(-c2ccc(F)cc2)oc2cc(N(C)S(C)(=O)=O)c(-c3cc(F)c(F)c(-c4nc5ccccc5o4)c3)cc12 [Example 194] | 4.2 nM
48 | CNC(=O)c1c(-c2ccc(F)cc2)oc2cc(N(C)S(C)(=O)=O)c(-c3cc(F)cc(-c4nc5ncccc5o4)c3)cc12 [Example 198] | 1.4 nM
